Data published in US20100255580A1, “Differentiation of Human Embryonic Stem Cells” (LIFESCCAN, INC., priority 2007, published 2010).

Tested on: H9 embryonic stem cells
Assay type: cell-based, human
Description: Controls for each group included cells plated on […]-coated dishes and cultured in MEF-conditioned medium or cells plated on MEFs and cultured in ES medium. All groups contained three biological replicates and each biological replicate was repeated on two separate gene chips.
Sample preparation, hybridization, and image analysis were performed according to the Affymetrix Human Genome U133 Plus 2.0 Array. Following normalization and a log transformation, data analysis was performed using OmniViz® software (MA) and […] (VizXLabs, WA). Significant differences in gene expression between the samples were evaluated using analysis of variance and an F-test with adjusted P-value (Benjamini and
Hochberg correction) of ≦b 0.05. Only genes with a present call in at least one group were included in the analysis.

[1] = DE treatment in low serum, on MEFS

Substance: Activin A: a member of the TGFβ superfamily; R&D Systems; Group 2 = Activin A (100 ng/ml)
- mean normalized intensity (log format), gene: Homo sapiens methyl-CpG binding protein MBD2 (MBD2) mRNA, complete cds. [1]: −1.702
- mean normalized intensity (log format), gene: Homo sapiens tachykinin, precursor 1 (TAC1), transcript variant beta, mRNA. [1]: 1.483
- mean normalized intensity (log format), gene: Homo sapiens testis expressed sequence 14 (TEX14), mRNA. [1]: −1.3824
- mean normalized intensity (log format), gene: Homo sapiens, Similar to LIM homeobox protein 8, clone IMAGE: 4839343, mRNA. [1]: −1.11
- mean normalized intensity (log format), gene: Homo sapiens, Similar to cadherin 6, type 2, K-cadherin (fetal kidney), clone MGC: 1470, mRNA, complete cds. [1]: 2.134
- mean normalized intensity (log format), gene: Homo sapiens, Similar to hypothetical protein FLJ10058, clone MGC: 34305 IMAGE: 5167647, mRNA, complete cds. [1]: 0.2156
- mean normalized intensity (log format), gene: Homo sapiens, Similar to hypothetical protein FLJ32001, clone MGC: 39559 IMAGE: 4828136, mRNA, complete cds. [1]: 1.269
- mean normalized intensity (log format), gene: Homo sapiens, clone IMAGE: 4067166, mRNA [1]: 0.277
- mean normalized intensity (log format), gene: Homo sapiens, clone IMAGE: 4828836, mRNA. [1]: −1.484
- mean normalized intensity (log format), gene: Homo sapiens, serine (or cysteine) proteinase inhibitor, clade B (ovalbumin), member 3, clone MGC: 12244, mRNA, complete cds. [1]: −1.566
- mean normalized intensity (log format), gene: Human mRNA upregulated during camptothecin-induced apoptosis of U937 cells. [1]: −0.1892
- mean normalized intensity (log format), gene: Human platelet-derived growth factor alpha-receptor (PDGFRA) mRNA, exons 13-16 [1]: 2.905
- mean normalized intensity (log format), gene: KIAA1151 protein [1]: 1.009
- mean normalized intensity (log format), gene: caldesmon 1 [1]: 5.634
- mean normalized intensity (log format), gene: nuclear receptor subfamily 1, group I, member 3 [1]: −0.1968
- mean normalized intensity (log format), gene: paternally expressed 3 (r2033) [1]: −0.0118
- mean normalized intensity (log format), gene: paternally expressed 3 (r2093) [1]: −3.492
- log intensity, AD036 mRNA (low serum, on MATRIGEL): −0.5033
- log intensity, ADP-ribosylation factor 4-like (ARF4L) (low serum, on MATRIGEL): 1.635
- log intensity, BACE mRNA for beta-site APP cleaving enzyme I-476 (low serum, on MATRIGEL): 0.4855
- log intensity, BTB (POZ) domain containing 2 (BTBD2) (low serum, on MATRIGEL): 1.101
- log intensity, CXCR4 gene encoding receptor CXCR4 (low serum, on MATRIGEL): 3.111
- log intensity, Cluster Incl. AB002344: Human mRNA for KIAA0346 gene (r901) (low serum, on MATRIGEL): 2.157
- log intensity, Cluster Incl. AB002344: Human mRNA for KIAA0346 gene (r941) (low serum, on MATRIGEL): 1.896
- log intensity, Cluster Incl. L37033: Human FK-506 binding protein homologue (FKBP38) (low serum, on MATRIGEL): 0.6156
- log intensity, Cluster Incl. N80935: zb07g06.s1 Homo sapiens cDNA (low serum, on MATRIGEL): 2.124
- log intensity, ESTs (r403) (low serum, on MATRIGEL): 0.7843
- log intensity, ESTs (r404) (low serum, on MATRIGEL): −1.263
- log intensity, ESTs (r405) (low serum, on MATRIGEL): −1.717
- log intensity, ESTs (r442) (low serum, on MATRIGEL): 2.774
- log intensity, ESTs (r453) (low serum, on MATRIGEL): −1.637
- log intensity, ESTs (r473) (low serum, on MATRIGEL): −0.04834
- log intensity, ESTs (r491) (low serum, on MATRIGEL): −1.344
- log intensity, ESTs (r522) (low serum, on MATRIGEL): −0.8015
- log intensity, ESTs (r523) (low serum, on MATRIGEL): −2.576
- log intensity, ESTs (r524) (low serum, on MATRIGEL): 0.4996
- log intensity, ESTs (r556) (low serum, on MATRIGEL): −0.1206
- log intensity, ESTs (r567) (low serum, on MATRIGEL): −2.015
- log intensity, ESTs (r627) (low serum, on MATRIGEL): 2.542
- log intensity, ESTs (r741) (low serum, on MATRIGEL): −0.004009
- log intensity, ESTs (r745) (low serum, on MATRIGEL): 1.386
- log intensity, ESTs (r766) (low serum, on MATRIGEL): 1.047
- log intensity, ESTs (r767) (low serum, on MATRIGEL): −1.485
- log intensity, ESTs (r891) (low serum, on MATRIGEL): −2.079
- log intensity, ESTs (r916) (low serum, on MATRIGEL): −0.1464
- log intensity, ESTs (r938) (low serum, on MATRIGEL): −1.246
- log intensity, ESTs (r980) (low serum, on MATRIGEL): −0.1842
- log intensity, ESTs (r1021) (low serum, on MATRIGEL): −0.4037
- log intensity, ESTs (r1022) (low serum, on MATRIGEL): 2.144
- log intensity, ESTs (r1059) (low serum, on MATRIGEL): 0.7835
- log intensity, ESTs (r1060) (low serum, on MATRIGEL): 1.175
- log intensity, ESTs (r1110) (low serum, on MATRIGEL): 0.533
- log intensity, ESTs (r1115) (low serum, on MATRIGEL): −1.164
- log intensity, ESTs, Highly similar to AF229172 1 class III myosin (low serum, on MATRIGEL): −0.4755
- log intensity, ESTs, Moderately similar to ALU4_HUMAN ALU SUBFAMILY SB2 (low serum, on MATRIGEL): −1.104
- log intensity, ESTs, Moderately similar to JC4969 pig-c protein (low serum, on MATRIGEL): −2.397
- log intensity, ESTs, Moderately similar to NFY-C (low serum, on MATRIGEL): −0.7494
- log intensity, ESTs, Weakly similar to A46302 PTB-associated splicing factor, long form (low serum, on MATRIGEL): 0.8941
- log intensity, ESTs, Weakly similar to ALU8_HUMAN ALU SUBFAMILY SX (low serum, on MATRIGEL): 2.766
- log intensity, ESTs, Weakly similar to ALUC_HUMAN (low serum, on MATRIGEL): 1.08
- log intensity, ESTs, Weakly similar to ALUF_HUMAN (low serum, on MATRIGEL): −1.032
- log intensity, ESTs, Weakly similar to KIAA1330 protein (low serum, on MATRIGEL): −0.9252
- log intensity, ESTs, Weakly similar to KIAA1399 protein (low serum, on MATRIGEL): −0.8312
- log intensity, ESTs, Weakly similar to T32252 hypothetical protein T15B7.2 (low serum, on MATRIGEL): 2.21
- log intensity, ESTs, Weakly similar to Z132_HUMAN ZINC FINGER PROTEIN 13 (low serum, on MATRIGEL): 1.049
- log intensity, F37Esophageal cancer-related gene-coding leucine-zipper motif (FEZ1) (low serum, on MATRIGEL): −0.1288
- log intensity, FLICE-like inhibitory protein short form (low serum, on MATRIGEL): 0.1358
- log intensity, GS1999full mRNA (low serum, on MATRIGEL): 0.137
- log intensity, H1 histone family, member X (H1FX) (low serum, on MATRIGEL): 3.217
